This is an account of results in patent publication US20200032249A1, “LABELING, ISOLATION, & ANALYSIS OF RNA FROM RARE CELL POPULATIONS” (priority 2017, published 2020).

In one data set the test system is 293T cells. Description: anti-BrdU immunofluorescent staining of 293T cells treated with 5-FC or 5-FU. It is filed as cell-based, human. The settings on record: 250 μM, 24 h. On the procedure: S. cerevisiae CD was exogenously expressed in human embryonic kidney 293T cells, and the cells were treated with 250 μM fluorocytosine (5-FC). This system is predicted to generate intracellular fluorouracil (5-FU), which is then incorporated into newly synthesized RNAs (FIG. 1a, b). Antibodies against bromodeoxyuridine (BrdU) can recognize BrdU and other halogenated uridines incorporated into nucleic acids (8).
Human embryonic kidney transformed with […] (293T) and human breast cancer MDA-MB-231 (MDA231) cells were cultured in DMEM High Glucose medium (Wheaton) supplemented with 10% Fetal Bovine Serum (Clontech, Catalog number 631106) supplemented with 2 mM L-Glutamine. All cell lines have been routinely tested for mycoplasma contamination. For the induction of CD or CD and UPRT, cells were treated with 1 μg/ml doxycycline for 24 h. For Fluorouracil tagging, cells were treated with 250 μM of 5-FC or 5-FU unless indicated. Where indicated, 125 μM thymine was added together with 5-FC. For the formation of stress granules, cells were treated with 500 μM Sodium Arsenite (Santa Cruz Biotechnologies, Catalog number SC-301816).
Cells were fixed with 4% paraformaldehyde for 10 min, permeabilized with 0.2% TritonX-100 for 10 min, blocked with 5% BSA for one hour at room temperature, prior to incubation with primary antibodies at 4° C. overnight, and secondary antibodies (Thermo Fisher anti-chicken antibody, Catalog number A-11039, Thermo Fisher anti-rat antibody, Catalog number A-11006, Abcam anti-rat antibody, Catalog number ab150117) incubated for 1 h at room temperature. Mouse lungs were fixed in 4% paraformaldehyde overnight at 4° C., embedded in paraffin and sectioned. The lung sections were deparaffinized and stained with hematolxylin/eosin or immunostained using standard protocols. Automated image analysis was performed using the FIJI software package.

A further data set deals with CD/UPRT-expressing cells. It is filed as cell-based. The settings on record: human. The protocol:
FIG. 2a-b. Flura-tagging has minimal cytotoxicity. FIG. 2a—Effect of Flura-tagging on stress granule formation. MDA231 cells were treated with 5-FC for the indicated times, and the formation of stress granules was detected by G3BP immunostaining. Control cells were either treated with water or sodium arsenite (Arsenite) for one hour. Arrows indicate stress granules (n=3). Scale bar=20 μM. FIG. 2b—Effect of Flura-tagging on transcription. RNA expression in control cells was compared to CD/UPRT-expressing cells treated with the indicated concentrations of 5-FC for 4 h or 12 h. Each dot represents a gene, with the outer/lighter gray dots indicating genes showing more than 2-fold differential expression, as determined by DESeq2 (n=2). The dotted line represents the four-fold cutoff mark.
For a more sensitive analysis of potential alterations caused by Flura-tagging, we investigated the transcriptional changes occurring under these experimental conditions. We compared the transcriptome of cells treated with two different concentrations of 5-FC (50 μM and 250 μM) at two different time points (4 h and 12 h) with that of control cells, using RNA-seq. […] This number increased to 190, 1325 and 1965 genes in cells treated with 250 μM 5-FC for 4 h, 50 μM 5-FC for 12 h, and 250 μM 5-FC for 12 h, respectively (FIG. 2b). Moreover, a majority of these differences in gene expression were within a four-fold range (FIG. 2b).
RNA-seq library preparation. Total RNA was purified using Qiagen RNeasy Mini Kit. Quality and quantity was checked by Agilent […]. 10 ng RNA per sample was used for library construction with Sample Prep Kit v2 (Illumina) according to manufacturer's instructions. Libraries were multiplex sequenced libraries on a Hiseq2500 platform, and more than 25 million raw paired-end reads were generated for each sample.
Reads were quality checked using FastQC v0.11.5 and mapped to a human (hg19) or hybrid human-mouse (hg19-mm10) genome with STAR2.5.2b (22) using standard settings for paired reads. Uniquely mapped reads were assigned to annotated genes with HTSeq v0.6.1p1 (23) with default settings. Read counts were normalized by library size, and differential gene expression analysis based on a negative binomial distribution was performed using DESeq2 v3.4 (24). In general, thresholds for differential expression were set as follows: adjusted p-value<0.05, fold change >2.0 or <0.5, and average normalized read count >10. Genes were considered detectable in the immunoprecipitation samples with a normalized read count >100. Gene set enrichment analysis was performed using GSVA v3.4 (25) and previously curated gene sets (26): HALLMARK_TGF_BETA_SIGNALING, HALLMARK_HEDGEHOG_SIGNALING, HALLMARK_WNT_BETA_CATENIN_SIGNALING, HALLMARK_PI3_K_AKT_MTOR_SIGNALING, HALLMARK_NOTCH_SIGNALING, HALLMARK_KRAS_SIGNALING_UP, CORDENONSI_YAP_CONSERVED_SIGNATURE, HALLMARK_IL6_JAK_STAT3_SIGNALING.

Read-outs that look alike come from different tables or passages of the source.

`Nc1nc(=O)[nH]cc1F` [5-FC, 5-fluorocytosine]: the “immunostaining with anti-BrdU antibody” value is given as “stained by the antibody” with 293T cells (293T cells expressing CD) and “did not” with 293T cells (untransfected control 293T cells). The “genes with more than 4-fold difference” value with CD/UPRT-expressing cells (4 h, 50 μM) was determined as 10 genes; in the data set with CD/UPRT-expressing cells (4 h, 250 μM), 15 genes; in the data set with CD/UPRT-expressing cells (12 h, 50 μM), 102 genes; in the data set on CD/UPRT-expressing cells (12 h, 250 μM), 182 genes. Moreover, the “genes with statistically significant differences in expression vs control cells” value was determined as 113 genes in the data set on CD/UPRT-expressing cells (4 h, 50 μM); 190 genes in the data set on CD/UPRT-expressing cells (4 h, 250 μM); 1325 genes in the data set on CD/UPRT-expressing cells (12 h, 50 μM); 1965 genes in the data set on CD/UPRT-expressing cells (12 h, 250 μM).
